# Data published in patent USRE48711E1, “Apoptosis signal-regulating kinase inhibitors” (Gilead Sciences, Inc., priority 2009, dated 2021).
# Molecular target: ASK1 (Apoptosis Signal-Regulating Kinase 1) (Homo sapiens (Human), UniProt Q99683)
# Test: ASK1 (Apoptosis Signal-Regulating Kinase 1) TR-FRET Kinase Assay (Biochemical IC50)
# Conditions: TR-FRET, biotin-MBP substrate, 20 min pre-incubation, ATP added as 300 μM solution
# Method: The ability of compounds to inhibit ASK1 kinase activity was determined using a time resolved fluorescence resonance energy transfer [TR-FRET] assay utilizing biotinylated myelin basic protein [biotin-MBP] as the protein substrate. […] The enzyme was allowed to pre-incubate with compound for 20 minutes prior to initiating the kinase reaction with the addition of 5 μL/well 300 μM ATP in buffer (50 mM MOPS, pH 7.0, 5 mM Mg-acetate, 1 mM DTT, 5% DMSO) using the Decrac Fluidics Equator. The kinase reactions were allowed to proceed for 20 minutes at ambient temperature and were subsequently stopped with the addition of 5 μL/well 25 mM EDTA using the Deerac Fluidics Equator. […] The TR-FRET signal was then read on a Perkin. Elmer Envision plate reader after incubating the plates at ambient temperature for 2 hours.
# Sequence of ASK1 (Apoptosis Signal-Regulating Kinase 1) (Q99683 649-946): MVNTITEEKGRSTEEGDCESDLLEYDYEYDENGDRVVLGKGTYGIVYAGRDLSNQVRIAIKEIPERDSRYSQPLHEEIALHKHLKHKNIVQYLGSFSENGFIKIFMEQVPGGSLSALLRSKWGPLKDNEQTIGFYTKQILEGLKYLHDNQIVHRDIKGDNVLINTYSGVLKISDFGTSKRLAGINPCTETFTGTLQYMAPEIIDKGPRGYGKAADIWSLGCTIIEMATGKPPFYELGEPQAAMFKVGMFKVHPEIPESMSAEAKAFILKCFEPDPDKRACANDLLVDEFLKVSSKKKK
row,SMILES,IC50
1,"O=C(Nc1cccc(-c2nncn2C2CC2)c1F)c1cc(-c2ccc(C3CC3)nc2)ccn1 [Example 155, 6-cyclopropyl-N-(3-(4-cyclopropyl-4H-1,2,4-triazol-3-yl)-2-fluorophenyl)-3,4′-bipyridine-2′-carboxamide]",10 nM
2,"O=C(Nc1cccc(-c2nncn2C2CC2)c1)c1cc(-c2cncc(C3CC3)c2)ccn1 [Example 156, 5-cyclopropyl-N-(3-(4-cyclopropyl-4H-1,2,4-triazol-3-yl)phenyl)-3,4′-bipyridine-2′-carboxamide]",11 nM
3,"Cc1cn(-c2ccnc(C(=O)Nc3cccc(-c4nncn4C4CC4)n3)c2)cn1 [Example 159, N-(6-(4-cyclopropyl-4H-1,2,4-triazol-3-yl)pyridin-2-yl)-4-(4-methyl-1H-imidazol-1-yl)picolinamide]",3 nM
4,"O=C(Nc1cc(-c2nncn2C2CC2)ccn1)c1cc(-c2cccnc2)ccn1 [Example 164, N-(4-(4-cyclopropyl-4H-1,2,4-triazol-3-yl)pyridin-2-yl)-3,4′-bipyridine-2′-carboxamide]",18 nM
5,"CC(C)(O)c1ccc(-c2ccnc(C(=O)Nc3cccc(-c4nncn4C4CC4)c3)c2)cn1 [Example 165, N-(3-(4-cyclopropyl-4H-1,2,4-triazol-3-yl)phenyl)-6-(2-hydroxypropan-2-yl)-3,4′-bipyridine-2′-carboxamide]",5 nM
6,"CC(C)(O)c1ccc(-c2ccnc(C(=O)Nc3cccc(-c4nncn4C4CC4)n3)c2)cn1 [Example 166, N-(6-(4-cyclopropyl-4H-1,2,4-triazol-3-yl)pyridin-2-yl)-6-(2-hydroxypropan-2-yl)-3,4′-bipyridine-2′-carboxamide]",5 nM
7,"O=C(Nc1cc(F)cc(-c2nncn2C2CC2)c1)c1cc(-c2ccc(C3CC3)nc2)ccn1 [Example 168, 6-cyclopropyl-N-(3-(4-cyclopropyl-4H-1,2,4-triazol-3-yl)-5-fluorophenyl)-3,4′-bipyridine-2′-carboxamide]",143 nM
8,"O=C(Nc1cc(F)cc(-c2nncn2C2CC2)c1)c1cc(-c2cccnc2)ccn1 [Example 169, N-(3-(4-cyclopropyl-4H-1,2,4-triazol-3-yl)-5-fluorophenyl)-3,4′-bipyridine-2′-carboxamide]",157 nM
9,"O=C(Nc1cccc(-c2nncn2C2CC2)c1)c1cc(-c2ccc(CC(F)(F)F)nc2)ccn1 [Example 171, N-(3-(4-cyclopropyl-4H-1,2,4-triazol-3-yl)phenyl)-6-(2,2,2-trifluoroethyl)-3,4′-bipyridine-2′-carboxamide]",7 nM
10,"CN1CCc2ncc(-c3ccnc(C(=O)Nc4cccc(-c5nncn5C5CC5)c4)c3)cc2C1 [Example 173, N-(3-(4-cyclopropyl-4H-1,2,4-triazol-3-yl)phenyl)-4-(6-methyl-5,6,7,8-tetrahydro-1,6-naphthyridin-3-yl)picolinamide]",21 nM
11,"O=C(Nc1cccc(-c2nncn2C2CC2)c1)c1cc(N2CCCC(O)C2)ccn1 (centres unmarked) [Example 174, N-(3-(4-cyclopropyl-4H-1,2,4-triazol-3-yl)phenyl)-4-(3-hydroxypiperidin-1-yl)picolinamide]",93 nM
12,"O=C(Nc1cccc(-c2nncn2C2CC2)n1)c1cc(N2CCCC(O)C2)ccn1 (centres unmarked) [Example 175, N-(6-(4-cyclopropyl-4H-1,2,4-triazol-3-yl)pyridin-2-yl)-4-(3-hydroxypiperidin-1-yl)picolinamide]",10 nM
13,"CC(C)n1cnnc1-c1cccc(NC(=O)c2cc(-c3ccc(C4CC4)nc3)ccn2)n1 [Example 176, 6-cyclopropyl-N-(6-(4-isopropyl-4H-1,2,4-triazol-3-yl)pyridin-2-yl)-3,4′-bipyridine-2′-carboxamide]",13 nM
14,"CCN1CCN(c2ccnc(C(=O)Nc3cccc(-c4nncn4C4CC4)c3)c2)CC1=O [Example 177, N-(3-(4-cyclopropyl-4H-1,2,4-triazol-3-yl)phenyl)-4-(4-ethyl-3-oxopiperazin-1-yl)picolinamide]",47 nM
15,"CCN1CCN(c2ccnc(C(=O)Nc3cccc(-c4nncn4C4CC4)n3)c2)CC1=O [Example 178, N-(6-(4-cyclopropyl-4H-1,2,4-triazol-3-yl)pyridin-2-yl)-4-(4-ethyl-3-oxopiperazin-1-yl)picolinamide]",7 nM
16,"C[C@H](n1cnnc1-c1cccc(NC(=O)c2cc(-c3ccc(C4CC4)nc3)ccn2)n1)C(F)(F)F [Example 179, (S)-6-cyclopropyl-N-(6-(4-(1,1,1-trifluoropropan-2-yl)-4H-1,2,4-triazol-3-yl)pyridin-2-yl)-3,4′-bipyridine-2′-carboxamide]",19 nM
17,"Cc1nc(C2CC2)cn1-c1ccnc(C(=O)Nc2cccc(-c3nncn3C3CC3)c2)c1 [Example 182, 4-(4-cyclopropyl-2-methyl-1H-imidazol-1-yl)-N-(3-(4-cyclopropyl-4H-1,2,4-triazol-3-yl)phenyl)picolinamide]",15 nM
18,"CC(C)n1cnnc1-c1cccc(NC(=O)c2cc(-n3cnc(C4CC4)c3)ccn2)c1 [Example 184, 4-(4-cyclopropyl-1H-imidazol-1-yl)-N-(3-(4-isopropyl-4H-1,2,4-triazol-3-yl)phenyl)picolinamide]",20 nM
19,"CC(c1ccccc1)n1cnnc1-c1cccc(NC(=O)c2cc(-n3cnc(C4CC4)c3)ccn2)c1 (centres unmarked) [Example 186, 4-(4-cyclopropyl-1H-imidazol-1-yl)-N-(3-(4-(1-phenylethyl)-4H-1,2,4-triazol-3-yl)phenyl)picolinamide]",30 nM

# Next, values leading:
row,IC50,SMILES
1,38 nM,"O=C(Nc1cccc(-c2nncn2C2CC2)c1F)c1cc(-c2cccnc2)ccn1 [Example 157, N-(3-(4-cyclopropyl-4H-1,2,4-triazol-3-yl)-2-fluorophenyl)-3,4′-bipyridine-2′-carboxamide]"
2,5 nM,"CCc1cn(-c2ccnc(C(=O)Nc3cccc(-c4nncn4C4CC4)c3)c2)cn1 [Example 158, N-(3-(4-cyclopropyl-4H-1,2,4-triazol-3-yl)phenyl)-4-(4-ethyl-1H-imidazol-1-yl)picolinamide]"
3,4 nM,"Cc1ncn(-c2ccnc(C(=O)Nc3cccc(-c4nncn4C4CC4)n3)c2)c1C [Example 160, N-(6-(4-cyclopropyl-4H-1,2,4-triazol-3-yl)pyridin-2-yl)-4-(4,5-dimethyl-1H-imidazol-1-yl)picolinamide]"
4,9 nM,"O=C(Nc1cccc(-c2nncn2C2CC2)c1)c1cc(-c2cnc3c(c2)CN(CC(F)(F)F)CC3)ccn1 [Example 161, N-(3-(4-cyclopropyl-4H-1,2,4-triazol-3-yl)phenyl)-4-(6-(2,2,2-trifluoroethyl)-5,6,7,8-tetrahydro-1,6-naphthyridin-3-yl)picolinamide]"
5,4 nM,"CC(C)c1cn(-c2ccnc(C(=O)Nc3cccc(-c4nncn4C4CC4)c3)c2)cn1 [Example 163, N-(3-(4-cyclopropyl-4H-1,2,4-triazol-3-yl)phenyl)-4-(4-isopropyl-1H-imidazol-1-yl)picolinamide]"
6,7 nM,"CC(C)c1cn(-c2ccnc(C(=O)Nc3cccc(-c4nncn4C4CC4)n3)c2)cn1 [Example 167, N-(6-(4-cyclopropyl-4H-1,2,4-triazol-3-yl)pyridin-2-yl)-4-(4-isopropyl-1H-imidazol-1-yl)picolinamide]"
7,7 nM,"O=C(Nc1cccc(-c2nncn2C2CC2)n1)c1cc(-n2cnc(C3CC3)c2)ccn1 [Example 170, 4-(4-cyclopropyl-1H-imidazol-1-yl)-N-(6-(4-cyclopropyl-4H-1,2,4-triazol-3-yl)pyridin-2-yl)picolinamide]"
8,17 nM,"CC(C)N1CCc2ncc(-c3ccnc(C(=O)Nc4cccc(-c5nncn5C5CC5)c4)c3)cc2C1 [Example 172, N-(3-(4-cyclopropyl-4H-1,2,4-triazol-3-yl)phenyl)-4-(6-isopropyl-5,6,7,8-tetrahydro-1,6-naphthyridin-3-yl)picolinamide]"
9,27 nM,"CC(C)n1cnnc1-c1cccc(NC(=O)c2cc(-c3cccnc3)ccn2)c1 [Example 180, N-(3-(4-isopropyl-4H-1,2,4-triazol-3-yl)phenyl)-3,4′-bipyridine-2′-carboxamide]"
10,131 nM,"O=C(Nc1cccc(-c2nncn2CC2CC2)c1)c1cc(-c2cccnc2)ccn1 [Example 181, N-(3-(4-(cyclopropylmethyl)-4H-1,2,4-triazol-3-yl)phenyl)-3,4′-bipyridine-2′-carboxamide]"
11,8 nM,"Cc1nc(C2CC2)cn1-c1ccnc(C(=O)Nc2cccc(-c3nncn3C3CC3)n2)c1 [Example 183, 4-(4-cyclopropyl-2-methyl-1H-imidazol-1-yl)-N-(6-(4-cyclopropyl-4H-1,2,4-triazol-3-yl)pyridin-2-yl)picolinamide]"
12,34 nM,"O=C(Nc1cccc(-c2nncn2CC2CC2)c1)c1cc(-n2cnc(C3CC3)c2)ccn1 [Example 185, 4-(4-cyclopropyl-1H-imidazol-1-yl)-N-(3-(4-(cyclopropylmethyl)-4H-1,2,4-triazol-3-yl)phenyl)picolinamde]"
13,4 nM,"O=C(Nc1cccc(-c2nncn2C2CC2)n1)c1cc(-n2cnc3c2CCCC3)ccn1 [Example 187, N-(6-(4-cyclopropyl-4H-1,2,4-triazol-3-yl)pyridin-2-yl)-4-(4,5,6,7-tetrahydro-1H-benzo[d]imidazol-1-yl)picolinamide]"
14,6 nM,"O=C(Nc1cccc(-c2nncn2C2CC2)n1)c1cc(-n2cnc(C(F)(F)F)c2)ccn1 [Example 188, N-(6-(4-cyclopropyl-4H-1,2,4-triazol-3-yl)pyridin-2-yl)-4-(4-(trifluoromethyl)-1H-imidazol-1-yl)picolinamide]"
15,9 nM,"C[C@H](n1cnnc1-c1cccc(NC(=O)c2cc(-n3cnc(C4CC4)c3)ccn2)c1)C(F)(F)F [Example 189, (S)-4-(4-cyclopropyl-1H-imidazol-1-yl)-N-(3-(4-(1,1,1-trifluoropropan-2-yl)-4H-1,2,4-triazol-3-yl)phenyl)picolinamide]"
16,13 nM,"O=C(Nc1cccc(-c2nncn2C2CC2)c1)c1cc(-c2cnc3cccnc3c2)ccn1 [Example 190, N-(3-(4-cyclopropyl-4H-1,2,4-triazol-3-yl)phenyl)-4-(1,5-naphthyridin-3-yl)picolinamide]"
